Test results from ChEMBL document CHEMBL4251700, “Novel Staphyloxanthin Inhibitors with Improved Potency against Multidrug Resistant Staphylococcus aureus” (ACS Med Chem Lett, 2018).
Substitutions are numbered along the chain they refer to. Active and inactive are the calls of the source. The rule behind the calls is not given here.

Legend:
[1] = target: T1, 4,4'-diapophytoene desaturase (4,4'-diaponeurosporene-forming) (Staphylococcus aureus (strain Mu50 / ATCC 700699), UniProt Q99R76); assay: Inhibition of CrtN in vancomycin-intermediate Staphylococcus aureus Mu50 assessed as reduction in staphyloxanthin levels after 48 hrs by spectrophotometric method-based pigment inhibition assay; design: species or system Staphylococcus aureus subsp. aureus Mu50
T1 sequence (Q99R76 whole entry): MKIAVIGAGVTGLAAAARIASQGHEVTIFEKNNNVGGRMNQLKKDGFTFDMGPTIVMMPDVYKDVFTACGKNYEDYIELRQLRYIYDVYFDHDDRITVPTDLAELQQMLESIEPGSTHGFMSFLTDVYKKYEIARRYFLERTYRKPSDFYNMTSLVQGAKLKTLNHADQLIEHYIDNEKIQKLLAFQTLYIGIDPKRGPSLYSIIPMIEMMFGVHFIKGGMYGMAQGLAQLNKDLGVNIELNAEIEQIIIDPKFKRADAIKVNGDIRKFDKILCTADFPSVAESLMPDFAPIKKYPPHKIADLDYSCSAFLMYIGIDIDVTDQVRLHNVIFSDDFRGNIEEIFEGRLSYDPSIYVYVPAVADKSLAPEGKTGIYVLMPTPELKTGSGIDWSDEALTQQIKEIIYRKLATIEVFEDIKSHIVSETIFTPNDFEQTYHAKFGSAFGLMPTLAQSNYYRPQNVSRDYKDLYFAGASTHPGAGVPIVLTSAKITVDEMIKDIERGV

[2] = target: Voltage-gated inwardly rectifying potassium channel KCNH2 (Homo sapiens, UniProt Q12809); assay: Inhibition of recombinant human ERG expressed in CHO cells at -80 mV holding potential measured after 3 minutes by automated whole cell patch clamp Qpatch method; type: cell-based
Voltage-gated inwardly rectifying potassium channel KCNH2, sequence (Q12809 whole entry): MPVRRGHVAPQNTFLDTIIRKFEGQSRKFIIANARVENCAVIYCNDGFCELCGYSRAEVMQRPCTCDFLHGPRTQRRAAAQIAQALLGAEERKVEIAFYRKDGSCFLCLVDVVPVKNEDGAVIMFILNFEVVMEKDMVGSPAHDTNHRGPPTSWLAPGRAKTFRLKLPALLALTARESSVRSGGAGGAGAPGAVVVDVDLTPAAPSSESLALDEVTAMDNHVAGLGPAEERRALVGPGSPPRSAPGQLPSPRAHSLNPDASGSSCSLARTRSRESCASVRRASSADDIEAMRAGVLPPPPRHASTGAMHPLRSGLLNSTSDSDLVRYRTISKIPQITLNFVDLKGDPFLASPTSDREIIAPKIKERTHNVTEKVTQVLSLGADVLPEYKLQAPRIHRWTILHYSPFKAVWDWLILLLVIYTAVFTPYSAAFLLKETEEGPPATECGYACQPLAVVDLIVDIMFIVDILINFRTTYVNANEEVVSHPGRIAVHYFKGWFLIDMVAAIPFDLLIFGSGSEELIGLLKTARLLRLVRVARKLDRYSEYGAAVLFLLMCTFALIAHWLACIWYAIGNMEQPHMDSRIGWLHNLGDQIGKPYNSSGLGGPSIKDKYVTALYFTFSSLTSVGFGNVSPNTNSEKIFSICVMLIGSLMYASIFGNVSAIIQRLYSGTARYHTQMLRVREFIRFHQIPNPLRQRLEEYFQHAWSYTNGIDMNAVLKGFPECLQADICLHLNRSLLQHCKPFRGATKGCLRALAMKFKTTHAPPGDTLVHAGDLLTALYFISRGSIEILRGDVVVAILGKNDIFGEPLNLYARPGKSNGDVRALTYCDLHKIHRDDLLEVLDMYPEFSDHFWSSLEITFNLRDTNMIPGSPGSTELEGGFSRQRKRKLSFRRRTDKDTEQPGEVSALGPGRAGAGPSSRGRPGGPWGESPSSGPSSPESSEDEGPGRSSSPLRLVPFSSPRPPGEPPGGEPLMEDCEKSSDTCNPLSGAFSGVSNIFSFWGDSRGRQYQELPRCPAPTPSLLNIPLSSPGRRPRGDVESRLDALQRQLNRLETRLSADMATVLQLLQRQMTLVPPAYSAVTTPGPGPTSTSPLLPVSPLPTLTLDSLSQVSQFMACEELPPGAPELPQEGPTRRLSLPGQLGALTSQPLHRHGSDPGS

Staphylococcus aureus [3] = assay: Growth inhibition of vancomycin-intermediate Staphylococcus aureus Mu50 at 0.2 mM incubated overnight measured at 30 mins interval; type: organism-based; conditions: 0.5 h, 200 µM
Staphylococcus aureus [4] = assay: Growth inhibition of methicillin-resistant Staphylococcus aureus USA400 MW2 at 0.2 mM incubated overnight measured at 30 mins interval; type: organism-based; conditions: 0.5 h, 200 µM
Trichophyton verrucosum = assay: Antifungal activity against Trichophyton verrucosum after 7 days; type: functional, organism-based
[5] = target: T2, 4,4'-diapophytoene desaturase (4,4'-diaponeurosporene-forming) (Staphylococcus aureus (strain Newman)) (UniProt O07855); assay: Inhibition of CrtN in Staphylococcus aureus Newman assessed as H2O2-induced bacterial death by measuring reduction in bacterial survival at 1 uM pretreated for 24 hrs followed by H2O2 addition measured after 30 mins by serial dilution method; conditions: Staphylococcus aureus subsp. aureus str. Newman
T2 sequence (whole entry): T1 sequence (Q99R76 whole entry)

[6] = target: T3, 4,4'-diapophytoene desaturase (4,4'-diaponeurosporene-forming) (Staphylococcus aureus (strain Mu50 / ATCC 700699)) (UniProt Q99R76); assay: Inhibition of CrtN in Staphylococcus aureus Mu50 assessed as H2O2-induced bacterial death by measuring reduction in bacterial survival at 1 uM preincubated for 24 hrs followed by H2O2 addition measured after 30 mins by serial dilution method; conditions: Staphylococcus aureus subsp. aureus Mu50
T3 sequence (whole entry): T1 sequence (Q99R76 whole entry)

[7] = target: T4, 4,4'-diapophytoene desaturase (4,4'-diaponeurosporene-forming) (Staphylococcus aureus (strain MW2)) (UniProt Q8NUQ6); assay: Inhibition of CrtN in Staphylococcus aureus USA300 LAC assessed as H2O2-induced bacterial death by measuring reduction in bacterial survival at 1 uM preincubated for 24 hrs followed by H2O2 addition measured after 30 mins by serial dilution method; conditions: Staphylococcus aureus subsp. aureus USA300
T4 sequence (whole entry): T1 sequence (Q99R76 whole entry) with R500Q

[8] = target: T4, 4,4'-diapophytoene desaturase (4,4'-diaponeurosporene-forming) (Staphylococcus aureus (strain MW2)); assay: Inhibition of CrtN in Staphylococcus aureus USA400 MW2 assessed as H2O2-induced bacterial death by measuring reduction in bacterial survival at 1 uM preincubated for 24 hrs followed by H2O2 addition measured after 30 mins by serial dilution method; conditions: Staphylococcus aureus subsp. aureus MW2
Staphylococcus aureus [9] = assay: Induction of sensitization to immune clearance towards Staphylococcus aureus Mu50 infected in human whole blood assessed as bacterial killing by measuring bacterial survival after 6 hrs by serial dilution method relative to control; type: functional
Staphylococcus aureus [10] = assay: Induction of sensitization to immune clearance towards Staphylococcus aureus USA300 LAC infected in human whole blood assessed as bacterial killing by measuring bacterial survival after 6 hrs by serial dilution method relative to control; type: functional
Staphylococcus aureus [11] = assay: Induction of sensitization to immune clearance towards Staphylococcus aureus USA400 MW2 infected in human whole blood assessed as bacterial killing by measuring bacterial survival after 6 hrs by serial dilution method relative to control; type: functional
Staphylococcus aureus [12] = assay: Antibacterial activity against vancomycin-intermediate Staphylococcus aureus Mu50 infected in BALB/c mouse assessed as reduction of bacterial burden in heart at 0.4 mg, ip bid for 3.5 days administered 6 hrs post bacterial infection measured 84 hrs post infection relative to control; type: functional; design: scale not given: the % may be the effect or the level left
Staphylococcus aureus [13] = assay: Antibacterial activity against vancomycin-intermediate Staphylococcus aureus Mu50 infected in BALB/c mouse assessed as reduction of bacterial burden in liver at 0.4 mg, ip bid administered at 12 hrs prior to bacterial infection dosed at 12 intervals for 4.5 days; type: functional, organism-based
Staphylococcus aureus [14] = assay: Antibacterial activity against linezolid-resistant Staphylococcus aureus NRS271 infected in BALB/c mouse assessed as reduction of bacterial burden in liver at 0.4 mg, ip bid administered at 12 hrs prior to bacterial infection dosed at 12 intervals for 4.5 days; type: functional, organism-based
Staphylococcus aureus [15] = assay: Antibacterial activity against linezolid-resistant Staphylococcus aureus NRS271 infected in BALB/c mouse assessed as log reduction of colony forming units in liver at 0.1 mg, ip bid for 3.5 days administered 6 hrs post bacterial infection measured 84 hrs post infection; type: functional
Staphylococcus aureus [16] = assay: Antibacterial activity against linezolid-resistant Staphylococcus aureus NRS271 infected in BALB/c mouse assessed as reduction of bacterial burden in heart at 0.1 mg, ip bid administered at 24 hrs prior to bacterial infection dosed at 12 intervals for 4.5 days
Staphylococcus aureus [17] = assay: Antibacterial activity against linezolid-resistant Staphylococcus aureus NRS271 infected in BALB/c mouse assessed as reduction of bacterial burden in heart at 0.4 mg, ip bid administered at 24 hrs prior to bacterial infection dosed at 12 intervals for 4.5 days

CN(C/C=C/C=C/c1ccc(C(F)(F)F)cc1)Cc1ccc2c(c1)OCCO2.Cl
IC50 [1]: < 0.0001 µM | IC50 [2]: 12.1 µM | growth inhibition (GI) (Staphylococcus aureus [3]): Non-Toxic | growth inhibition (GI) (Staphylococcus aureus [4]): Non-Toxic | Activity (Trichophyton verrucosum): inactive | inhibition [5]: Active | inhibition [6]: Active | inhibition [7]: Active | inhibition [8]: Active | Survival (Staphylococcus aureus [9]): <0.5% | Survival (Staphylococcus aureus [10]): <0.5% | Survival (Staphylococcus aureus [11]): <0.5% | Activity (Staphylococcus aureus [12]): 99% | Activity (Staphylococcus aureus [13]): Active | Activity (Staphylococcus aureus [14]): Active | Activity (Staphylococcus aureus [15]): <=0.75 log10CFU | Activity (Staphylococcus aureus [16]): Active | Activity (Staphylococcus aureus [17]): Active
